Data reported in patent US20110160265A1, “METHOD OF TREATING MOTOR DISORDERS WITH ALPHA-2B ADRENERGIC RECEPTOR AGONISTS” (priority 2007, published 2011).

Key:
[1] = system: nigrostriatal-lesioned rats; test: Nigrostriatal-lesion-induced rotational behavior following amphetamine administration; format: in vivo; settings: relative to Vehicle+Amphetamine, drug 2 amphetamine SC
Experimental: Table 4, below, indicates the changes in rotational behavior in nigrostriatal-lesioned rats treated with various alpha-2B receptor agonists and the psychostimulant amphetamine. Drug 1 was administered 15 minutes before amphetamine, and 10 minutes post-amphetamine, the animals were placed into the rotometer for 30 or 60 minutes. “% decrease rotations” indicates the percentage decrease in total rotations relative to the Vehicle+Amphetamine group. ^⋄ indicates significant difference (P<0.05) relative to Vehicle+Amphetamine treated animals. * indicates significant difference (P<0.05) relative to Vehicle+Vehicle treated animals.
Amphetamine-induced rotational behavior. Pre-Apomorphine-screened (rotated) rats (with lesions ≧95% DA cell loss) were purchased from Charles Rivers Laboratories. Animals were given ˜4 days to acclimate prior to testing. All animals weighted 250-300 g at the beginning of the study. Animals were treated with various combinations of vehicle or alpha-2B receptor agonist and amphetamine.
Vehicle or alpha-2B receptor agonist was administered (p.o.) 15 minutes before amphetamine (2 mg/kg s.c.). Rotational behavior was assessed 15 minutes post-amphetamine administration and was monitored for 60 minutes using a Rotometer system from San Diego Instruments (San Diego, Calif.).
(§1) For i.p. administration, the compounds are formulated in H2O with 0.5% DMSO and given in a volume of 1 ml/kg body weight by injecting into the intraperitoneal cavity. For p.o. administration, the compounds are formulated in H2O with 0.5% DMSO and given in a volume of 2 ml/kg body weight using a 25-gauge, 1.5 inch gavage needle that is slowly inserted through the esophagus into the stomach.

mice [2] = test: Amphetamine-induced hyperlocomotion (open field); format: in vivo; settings: drug 2 amphetamine SC
Experimental: Table 2, below, indicates the locomotor responses of mice treated with various combinations of alpha-2B receptor agonists and the psychostimulant amphetamine. Drug 1 was administered 30 minutes after the animal was placed in the open field. Drug 2 was administered subcutaneously (SC) at 45 minutes after the animal was placed in the open field (15 minutes after drug 1). AUC indicates the total amount of locomotor activity after administration of drug 2. “% decrease activity” indicates the percentage decrease in total activity relative to the Vehicle+Amphetamine group. ° indicates significant difference (P<0.05) relative to Vehicle+Amphetamine treated animals. * indicates significant difference (P<0.05) relative to Vehicle+Vehicle treated animals.
(§2) Amphetamine- or cocaine-induced hyperactivity. Mice were placed in an open field apparatus (FlexField, San Diego Instruments, San Diego, Calif.). After 30 minutes of habituation, they received a vehicle or haloperidol injection or injection of alpha-2B receptor agonist followed by an injection of amphetamine (2 mg/kg, s.c.) or cocaine (10 mg/kg, i.p.) at minute 45. Their activity levels were subsequently measured for another 1 hour post-injection. Total activity over each 5 minute bin (21 total bins) was added to establish activity curve over the 105 minute testing.
as §1

alpha-2A receptor = molecular target: T1, alpha-2A receptor (Homo sapiens, UniProt P08913); test: Alpha-2A receptor activity (efficacy relative to brimonidine); format: cell-based; settings: in words; b7: lacks significant activity = less than 40% of the efficacy of brimonidine at alpha-2A
T1 sequence (P08913 1-465): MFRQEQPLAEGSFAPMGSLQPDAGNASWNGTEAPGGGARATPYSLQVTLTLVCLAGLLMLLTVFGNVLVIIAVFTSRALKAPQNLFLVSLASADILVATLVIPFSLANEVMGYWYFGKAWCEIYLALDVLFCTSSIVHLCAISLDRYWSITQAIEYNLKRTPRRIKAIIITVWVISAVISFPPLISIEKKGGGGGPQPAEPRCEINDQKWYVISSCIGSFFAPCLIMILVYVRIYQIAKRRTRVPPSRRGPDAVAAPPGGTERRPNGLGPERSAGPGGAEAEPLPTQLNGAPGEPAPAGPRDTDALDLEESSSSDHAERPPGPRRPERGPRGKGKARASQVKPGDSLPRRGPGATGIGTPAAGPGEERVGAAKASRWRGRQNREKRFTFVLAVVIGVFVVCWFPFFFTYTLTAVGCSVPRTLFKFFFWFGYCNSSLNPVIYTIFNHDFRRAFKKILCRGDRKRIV
From the text: The methods of the present invention use alpha-2 agonists lacking significant activity at the alpha-2A receptor subtype. An agonist lacks significant alpha-2A receptor activity if the agonist has less than 40% of the efficacy of brimonidine at the alpha-2A receptor subtype. Compounds of the invention include, therefore, alpha-2B receptor agonists lacking significant alpha-2A activity; alpha 2B/2C receptor agonists lacking significant alpha-2A activity; and alpha-2C receptor agonists lacking significant alpha-2A activity.
Efficacy, also known as intrinsic activity, is a measure of maximal receptor activation achieved by a compound and can be determined using any accepted assay of alpha-adrenergic receptor activation, such as a cAMP or Receptor Selection and Amplification Technology (RSAT). Efficacy is represented as a ratio or percentage of the maximal effect of the drug to the maximal effect of a standard agonist for each receptor subtype. Brimonidine, itself an alpha-2B receptor agonist (it is has 100% the efficacy of brimonidine at the alpha-2B adrenergic receptor), is used as the standard agonist for the alpha-2B adrenergic receptors.
Agonist activity can be characterized using any of a variety of routine assays, including, for example, Receptor Selection and Amplification Technology (RSAT) assays (Messier et al., Pharmacol. Toxicol. 76:308-11 (1995); cyclic AMP assays (Shimizu et al., J. Neurochem. 16:1609-1619 (1969)); and cytosensor microphysiometry assays (Neve et al., J. Biol. Chem. 267:25748-25753 (1992)). Such assays generally are performed using cells that naturally express only a single alpha-adrenergic receptor subtype, or using transfected cells expressing a single recombinant alpha-adrenergic receptor subtype. The adrenergic receptor can be a human receptor or homolog of a human receptor having a similar pharmacology.
The RSAT assay measures receptor-mediated loss of contact inhibition resulting in selective proliferation of receptor-containing cells in a mixed population of confluent cells. The increase in cell number is assessed with an appropriate detectable marker gene such as beta-galactosidase, if desired, in a high throughput or ultra high throughput assay format. Receptors that activate the G protein, Gq, elicit the proliferative response. Alpha-adrenergic receptors, which normally couple to Gi, activate the RSAT response when coexpressed with a hybrid Gq protein containing a Gi receptor recognition domain, designated Gq/i5. Conklin et al., Nature 363:274-6 (1993)).
As an example, an RSAT assay can be performed essentially as follows. NIH-3T3 cells are plated at a density of 2×10^6 cells in 15 cm dishes and maintained in Dulbecco's modified Eagle's medium supplemented with 10% calf serum. One day later, cells are cotransfected by calcium phosphate precipitation with mammalian expression plasmids encoding p-SV-β-galactosidase (5-10 μg), receptor (1-2 μg) and G protein (1-2 μg). Carrier DNA, for example 40 μg salmon sperm DNA, also can be included to increase transfection efficiency. Fresh media is added on the following day; one to two days later, cells are harvested and frozen in 50 assay aliquots. Transfected cells are thawed, and 100 μl of cells added to 100 μl aliquots of compound to be tested, with various concentrations assayed in triplicate, for example, in 96-well plates. Incubation continues for 72 to 96 hours at 37° C. After washing with phosphate-buffered saline, β-galactosidase activity is determined by adding 200 μl of chromogenic substrate (3.5 mM O-nitrophenyl-β-D-galactopyranoside/0.5% NP-40 in phosphate buffered saline), incubating overnight at 30° C., and measuring optical density at 420 nm. The absorbancy is a measure of enzyme activity, which depends on cell number and reflects receptor-mediated cell proliferation. The EC50 and maximal effect (i.e., efficacy) of each drug at each receptor is determined.

mice [3] = test: Cocaine-induced hyperlocomotion (open field); format: in vivo; settings: drug 2 cocaine SC; for % DECREASE ACTIVITY: relative to Vehicle+Cocaine
Experimental: Table 3, below, indicates the locomotor responses of mice treated with various combinations of alpha-2B receptor agonists and the psychostimulant cocaine. Drug 1 was administered 30 minutes after the animal was placed in the open field. Drug 2 was administered subcutaneously (SC) at 45 minutes after the animal was placed in the open field (15 minutes after drug 1). AUC indicates the total amount of locomotor activity after administration of drug 2. “% decrease activity” indicates the percentage decrease in total activity relative to the Vehicle+Cocaine group. ° indicates significant difference (P<0.05) relative to Vehicle+Cocaine treated animals. * indicates significant difference (P<0.05) relative to Vehicle+Vehicle treated animals.
as §2, §1

For `c1ccc2c(c1)CC[C@@H](Cc1c[nH]cn1)C2` [Compound B], the “% DECREASE ROTATIONS” value ([1]; drug 1 0.03 mg/kg PO) was 29% * ^, the “% DECREASE ACTIVITY REL TO VEH + AMPH” value (mice [2]; drug 1 0.03 mg/kg IP) was 68% ^⋄ and the “TOTAL ACTIVITY POST-AMPHETAMINE (AUC)” value (mice [2]; drug 1 0.03 mg/kg IP) was 3940.5 ± 573.7. For the same compound, the “% DECREASE ACTIVITY REL TO VEH + AMPH” value (mice [2]; drug 1 1 mg/kg IP) was 64% ^⋄, the “TOTAL ACTIVITY POST-AMPHETAMINE (AUC)” value (mice [2]; drug 1 1 mg/kg IP) was 4462.0 ± 957.5 and the alpha-2A receptor activity (alpha-2A receptor) was “lack significant alpha-2A receptor activity”.
With `O=C1c2ccccc2CC[C@H]1Cc1c[nH]c(=S)[nH]1` [Compound E] the “% DECREASE ROTATIONS” value ([1]; drug 1 0.3 mg/kg PO) was 58% ^⋄ *, the “% DECREASE ACTIVITY REL TO VEH + AMPH” value (mice [2]; drug 1 0.01 mg/kg PO) was 15% * and the “TOTAL ACTIVITY POST-AMPHETAMINE (AUC)” value (mice [2]; drug 1 0.01 mg/kg PO) was 11419.2 ± 550.4. The “% DECREASE ACTIVITY REL TO VEH + AMPH” value (mice [2]; drug 1 0.03 mg/kg PO) was 58% ^⋄, the “TOTAL ACTIVITY POST-AMPHETAMINE (AUC)” value (mice [2]; drug 1 0.03 mg/kg PO) was 5616.8 ± 618.2 and the “% DECREASE ACTIVITY REL TO VEH + AMPH” value (mice [2]; drug 1 0.1 mg/kg PO) was 66% ^⋄. For the same compound, the “TOTAL ACTIVITY POST-AMPHETAMINE (AUC)” value (mice [2]; drug 1 0.1 mg/kg PO) was 4623.8 ± 1166.7, the “% DECREASE ACTIVITY REL TO VEH + AMPH” value (mice [2]; drug 1 1 mg/kg PO) was 49% ^⋄ * and the “TOTAL ACTIVITY POST-AMPHETAMINE (AUC)” value (mice [2]; drug 1 1 mg/kg PO) was 6867.3 ± 979.3. The “% DECREASE ACTIVITY REL TO VEH + AMPH” value (mice [2]; drug 1 10 mg/kg PO) was 55% ^⋄, the “TOTAL ACTIVITY POST-AMPHETAMINE (AUC)” value (mice [2]; drug 1 10 mg/kg PO) was 6026.0 ± 1007.9 and the “TOTAL ACTIVITY POST-COCAINE (AUC)” value (mice [3]; drug 1 0.01 mg/kg PO) was 5036.5 ± 464.2. The “TOTAL ACTIVITY POST-COCAINE (AUC)” value (mice [3]; drug 1 0.03 mg/kg PO) was 5033.5 ± 503.8, the “TOTAL ACTIVITY POST-COCAINE (AUC)” value (mice [3]; drug 1 0.1 mg/kg PO) was 6263.0 ± 436.6 and the “TOTAL ACTIVITY POST-COCAINE (AUC)” value (mice [3]; drug 1 0.3 mg/kg PO) was 3662.1 ± 1458.2. The “% DECREASE ACTIVITY” value (mice [3]; drug 1 0.01 mg/kg PO) was 52% ^⋄ *, the “% DECREASE ACTIVITY” value (mice [3]; drug 1 0.03 mg/kg PO) was 52% ^⋄ * and the “% DECREASE ACTIVITY” value (mice [3]; drug 1 0.1 mg/kg PO) was 40% ^⋄ *. For the same compound, the “% DECREASE ACTIVITY” value (mice [3]; drug 1 0.3 mg/kg PO) was 65% ^⋄ and the alpha-2A receptor activity (alpha-2A receptor) was “lack significant alpha-2A receptor activity”.
In the case of `Clc1cccc(C(c2ccccc2)c2c[nH]cn2)c1Cl` (stereo not shown) [Compound C], the “% DECREASE ACTIVITY REL TO VEH + AMPH” value (mice [2]; drug 1 0.03 mg/kg IP) is reported as 52% ^⋄, the “TOTAL ACTIVITY POST-AMPHETAMINE (AUC)” value (mice [2]; drug 1 0.03 mg/kg IP) is reported as 6348.0 ± 423.4 and the alpha-2A receptor activity (alpha-2A receptor) is reported as “lack significant alpha-2A receptor activity”.
`O=C(CCCN1CCC(O)(c2ccc(Cl)cc2)CC1)c1ccc(F)cc1` [Haloperidol, reference compound] was tested, and the “% DECREASE ACTIVITY REL TO VEH + AMPH” value (mice [2]; drug 1 0.2 mg/kg IP) was 91% ^⋄ * and the “TOTAL ACTIVITY POST-AMPHETAMINE (AUC)” value (mice [2]; drug 1 0.2 mg/kg IP) was 1123.2 ± 280.1.
